# System: PDE IV
# Test: Inhibition of PDE IV activity (method of Bauer and Schwabe, adapted to microtiter plates)
# Assay type: biochemical
row,SMILES,"Inhibition of PDE IV activity, -log IC50"
1,"COc1ccc(-c2nc3ncccc3[nH]2)c2cc(C(C)C)oc12 [Compound 1, 2-[7-Methoxy-2-(1-methylethyl)benzofuran-4-yl]imidazo[4,5-b]pyridine]",7.41
2,"CC(C)c1cc2c(-c3nc4ncccc4[nH]3)ccc(OC(F)F)c2o1 [Compound 2, 2-[7-Difluoromethoxy-2(1-methylethyl)benzofuran-4yl]imidazo[4,5-b]pyridine]",8.14
3,"COc1ccc(-c2nc3ncccc3[nH]2)c2c1OC1(C=C2)CCCC1 [Compound 3, 2-[8-Methoxy-2,2-tetramethylene-1[2H]chromen-5-yl]imidazo[4,5-b]pyridine]",5.83
4,"COc1ccc(-c2nc3cnccc3[nH]2)c2cc(C3CCCC3)oc12 [Compound 4, 2-(2Cyclopentyl-7-methoxy-benzofuran-4-yl)imidazo[4,5-c]pyridine]",7.74
5,"COc1ccc(-c2nc3cnccc3[nH]2)c2c1OC1(C=C2)CCCC1 [Compound 5, 2-[8-Methoxy-2,2-tetramethylene-1[2H]chromen-5-yl]imidazo[4,5-c]pyridine]",6.76
6,"CC(C)c1cc2c(-c3nc4cnccc4[nH]3)ccc(OC(F)F)c2o1 [Compound 6, 2-[7-Difluoromethoxy-2-(1-methylethyl)benzofuran-4-yl]imidazo[4,5-c]pyridine]",8.38
7,COc1ccc(-c2nc3cnccc3[nH]2)c2cc(C(C)C)oc12 [Compound 7],8.09
